# Values of other authors as cited in patent US20130195827A1, “NUTRIGENOMIC METHODS TO OVERCOME CARBOHYDRATE BINGEING AND OVEREATING” (priority 2011, published 2013).
# Tests used:
# lipolysis = settings: in vitro, p<0.01
Molecule,increase of leptin secretion (leptin secretion) [%],basal rate of lipolysis (lipolysis)
Insulin: hormone insulin,25,–
C[C@]12CCC(=O)C=C1CC[C@@H]1[C@@H]2[C@@H](O)C[C@@]2(C)[C@H]1CC[C@]2(O)C(=O)CO [cortisol],–,significantly reduced
